Here are results for 22 compounds from patent US9920073B2, “Compositions useful for inhibiting HIV-1 infection and methods using same” (Drexel University, priority 2013, dated 2018).

One may read the IC50 as the concentration that inhibits the measured activity by half.

Read-outs that look alike come from different tables or passages of the source.

What all share (format): cell-based
In one assay the test system is HIV-1YU-2. Description: microbe, parasite or virus in culture. The conditions noted are these: Human immunodeficiency virus 1, read-out: IC50 YU-2, single round infection assay.
The next assay deals with HIV-1JR-CSF. The assay can be described thus: microbe, parasite or virus in culture.
The next assay concerns HIV-1HxBc2. The assay can be described thus: microbe, parasite or virus in culture.
Assay [1] has as its system amphotropic murine leukemia virus (AMLV). The assay can be described thus: microbe, parasite or virus in culture. The conditions noted are these: for specificity to HIV-1 (inhibition of AMLV-pseudotyped HIV-1): single round infection assay, in words; for IC50: Murine leukemia virus, read-out: IC50 AMLV, Table 2 screening results, specificity control.
The subject of assay [2] is attachment of HIV-1HxBc2 to U87-CD+-CXCR4+ cells. Description: Temperature shift assay (viral attachment). As to the method:
The entry process can be divided into two temperature-dependent stages, with receptor and coreceptor binding occurring over the temperature range 0-37° C., while the fusion process only occurs at temperatures above 25° C. (Frey, et al., 1995, J. Virol. 69:1462-1472). Based upon differential ranges in temperatures at which binding and fusion/entry occur, a novel assay was developed to detect viral attachment in the presence or absence of inhibitors. Recombinant single-round infective HIV-1 virions are incubated with permissive cells at 4° C. for 2 hours to only allow the initial receptor/coreceptor engagement. Unattached virions, and the compound, are then removed by washing the cells with cold media followed by centrifugation at 1200 rpm for 4 min at 4° C. Cells are replenished with fresh media and transferred to 37° C. After 48 hour of incubation, the level of infection is measured by a luciferase activity as in the standard single-round infection assay. […] Conversely, the small molecule CD4-mimetic NBD-556, which is known to disrupt the gp120-CD4 interaction, reduces the level of infection to 40% of vehicle (DMSO) alone (FIG. 11). […] Moreover, this analysis may be extended to encompass viruses that utilize CCR5 for entry.

The next assay deals with HIV-1 isolate BaL. Description: microbe, parasite or virus in culture. Particulars: Human immunodeficiency virus 1, tropism R5.
The test system of the next assay is HIV-1 isolate JR-FL. Description: microbe, parasite or virus in culture. Particulars: Human immunodeficiency virus 1, tropism R5.
Another assay relates to HIV-1 isolate AC10.0.29. Description: microbe, parasite or virus in culture. Particulars: Human immunodeficiency virus 1; isolate AC10.0.29, tropism R5.
Setting [3] is: Human immunodeficiency virus 1, read-out: IC50 JR-CSF.
Setting [4] is: Human immunodeficiency virus 1, read-out: IC50 HxBc2.
[5] abbreviates: read-out: IC50 JR-CSF, single round infection assay.

As to `O=C(c1ccccc1)N1CCN(C(=O)c2ccc3c4c(cccc24)CC3)CC1` [SC03, (4-benzoylpiperazin-1-yl)(1,2-dihydroacenaphthylen-5-yl)methanone], the figures for the IC50 in the assay with HIV-1YU-2 and in the assay with HIV-1JR-CSF (setting [3]) were 13100 ± 1700 nM and 420 ± 280 nM, respectively.

As to `COc1cnc(-n2cnc(C)n2)c2[nH]cc(C(=O)C(=O)N3CC(CSC(=O)c4ccccc4)C3)c12` [SC16, S-((1-(2-(4-methoxy-7-(3-methyl-1H-1,2,4-triazol-1-yl)-1H-pyrrolo[2,3-c]pyridin-3-yl)-2-oxoacetyl)azetidin-3-yl)methyl) benzothioate], the values for the IC50 in the assay with HIV-1JR-CSF (setting [3]) and with HIV-1HxBc2 (setting [4]) were 100 ± 20 nM and 150 ± 30 nM, respectively.

For the compound `COc1cnc(-n2cnc(C)n2)c2[nH]cc(C(=O)C(=O)NCC3CN(C(=O)c4ccccc4)C3)c12` [SC14, N-((1-benzoylazetidin-3-yl)methyl)-2-(4-methoxy-7-(3-methyl-1H-1,2,4-triazol-1-yl)-1H-pyrrolo[2,3-c]pyridin-3-yl)-2-oxoacetamide], the IC50 in the assay on HIV-1JR-CSF (setting [3]) was 2500 ± 400 nM; in the assay with HIV-1HxBc2 (setting [4]) it was 1200 ± 400 nM.

With `COc1cnc(-n2cnc(C)n2)c2[nH]cc(C(=O)C(=O)N3CC4CN(C(=O)c5ccccc5)CC4C3)c12` (stereo not drawn) [SC11, 1-(5-benzoylhexahydropyrrolo[3,4-c]pyrrol-2(1H)-yl)-2-(4-methoxy-7-(3-methyl-1H-1,2,4-triazol-1-yl)-1H-pyrrolo[2,3-c]pyridin-3-yl)ethane-1,2-dione], the IC50 with HIV-1JR-CSF (setting [5]) was 0.8 ± 0.4 nM. In assay [1], the “specificity to HIV-1 (inhibition of AMLV-pseudotyped HIV-1)” value is on record as “retaining HIV-1 specificity”.

In the case of `COc1cnc(-n2cnc(C)n2)c2[nH]cc(C(=O)C(=O)N(C)C3CN(C(=O)c4ccccc4)C3)c12` [SC18, N-(1-benzoylazetidin-3-yl)-2-(4-methoxy-7-(3-methyl-1H-1,2,4-triazol-1-yl)-1H-pyrrolo[2,3-c]pyridin-3-yl)-N-methyl-2-oxoacetamide], the concentration for half-maximal inhibition (IC50) in the assay with HIV-1JR-CSF (setting [3]) was 1300 ± 200 nM; in the assay on HIV-1HxBc2 (setting [4]) it was 102000 ± 160000 nM.

For `COc1cnc(-n2cnc(C)n2)c2[nH]cc(C(=O)C(=O)N3CC=C(CNC(=O)c4ccccc4)CC3)c12` [SC45, N-((1-(2-(4-methoxy-7-(3-methyl-1H-1,2,4-triazol-1-yl)-1H-pyrrolo[2,3-c]pyridin-3-yl)-2-oxoacetyl)-1,2,3,6-tetrahydropyridin-4-yl)methyl)benzamide], the figures for the IC50 in the assay on HIV-1JR-CSF (setting [3]) and with HIV-1HxBc2 (setting [4]) were 150 ± 9 nM and 100 ± 30 nM, respectively.

As to `O=C(C(=O)N1CC2C=NN(c3ccccc3)C2C1)c1c[nH]c2c(-n3ccnn3)ncc(F)c12` (stereo not drawn) [SC38, 1-(4-fluoro-7-(1H-1,2,3-triazol-1-yl)-1H-pyrrolo[2,3-c]pyridin-3-yl)-2-(1-phenyl-3a,4,6,6a-tetrahydropyrrolo[3,4-c]pyrazol-5(1H)-yl)ethane-1,2-dione], the half-inhibitory concentration (IC50) in the assay on HIV-1HxBc2 (setting [4]) was determined as 8 ± 3 nM.

Regarding `COc1cnc(-n2cnc(C)n2)c2[nH]cc(C(=O)C(=O)N3CC4C=NN(c5cccc(C)n5)C4C3)c12` (stereo not drawn) [SC24, 1-(4-methoxy-7-(3-methyl-1H-1,2,4-triazol-1-yl)-1H-pyrrolo[2,3-c]pyridin-3-yl)-2-(1-(6-methylpyridin-2-yl)-3a,4,6,6a-tetrahydropyrrolo[3,4-c]pyrazol-5(1H)-yl)ethane-1,2-dione], in the assay on HIV-1JR-CSF (setting [3]), the IC50 is 700 ± 400 nM.

Turning to `COc1ncc(OC)c2c(C(=O)C(=O)N3CC4CN(C(=O)c5ccccc5)CC4C3)c[nH]c12` (stereo not drawn) [SC08, 1-(5-benzoylhexahydropyrrolo[3,4-c]pyrrol-2(1H)-yl)-2-(4,7-dimethoxy-1H-pyrrolo[2,3-c]pyridin-3-yl)ethane-1,2-dione], the IC50 turned out to be 90 ± 10 nM in the assay on HIV-1JR-CSF (setting [5]) and 190 ± 80 nM in the assay on HIV-1HxBc2 (setting [4]). Also, the “specificity to HIV-1 (inhibition of AMLV-pseudotyped HIV-1)” value in assay [1] is given as “no inhibition of AMLV-pseudotyped HIV-1”.

`O=C(c1ccccc1)N1CC2CN(C(=O)c3ccc4c5c(cccc35)CC4)CC2C1` (stereo not drawn) [SC04, (5-benzoylhexahydropyrrolo[3,4-c]pyrrol-2(1H)-yl)(1,2-dihydroacenaphthylen-5-yl)methanone]: the IC50 stood at 70000 ± 6000 nM in the assay with HIV-1YU-2 and 100000 ± 30000 nM with HIV-1JR-CSF (setting [5]).

On to `Cc1ncn(-c2ncc(F)c3c(C(=O)C(=O)N4CC5C=NN(c6nnnn6-c6ccccc6)C5C4)c[nH]c23)n1` (stereo not drawn) [SC39, 1-(4-fluoro-7-(3-methyl-1H-1,2,4-triazol-1-yl)-1H-pyrrolo[2,3-c]pyridin-3-yl)-2-(1-(1-phenyl-1H-tetrazol-5-yl)-3a,4,6,6a-tetrahydropyrrolo[3,4-c]pyrazol-5(1H)-yl)ethane-1,2-dione], for which, in the assay with HIV-1HxBc2 (setting [4]), the IC50 was 35300 ± 9300 nM.

For `COc1cnc(-n2cnc(C)n2)c2[nH]cc(C(=O)C(=O)N3CC4C=NN(c5ccccc5)C4C3)c12` (stereo not drawn) [SC12, 1-(4-methoxy-7-(3-methyl-1H-1,2,4-triazol-1-yl)-1H-pyrrolo[2,3-c]pyridin-3-yl)-2-(1-phenyl-3a,4,6,6a-tetrahydropyrrolo[3,4-c]pyrazol-5(1H)-yl)ethane-1,2-dione], in assay [2] (temperature shift assay, in words), the “block of viral attachment” value was “does not appear to block viral attachment”. The IC50 in the assay on HIV-1JR-CSF (Human immunodeficiency virus 1) is 13 ± 3 nM; in the assay with HIV-1JR-CSF (setting [3]), 8 ± 2 nM; in the assay with HIV-1 isolate BaL, 3500 ± 300 nM; with HIV-1 isolate JR-FL, 106 ± 52 nM; with HIV-1HxBc2 (Human immunodeficiency virus 1), 24 ± 3 nM; with HIV-1HxBc2 (setting [4]), 80 ± 20 nM. For the same compound, the midpoint of inhibition in the assay on HIV-1 isolate AC10.0.29, the IC50, lay at 488 ± 47 nM.

On to `CC1(C)CC(NC(=O)C(=O)Nc2ccc(Cl)cc2)CC(C)(C)N1` [NBD-556, N1-(4-chlorophenyl)-N2-(2,2,6,6-tetramethyl-4-piperidinyl)-ethanediamide, reference compound], for which, in assay [2] (virions with cells at 4° C. for 2 hours, wash, 37° C. 48 hour, FIG. 11), the “level of infection relative to vehicle (DMSO) alone” value turned out to be 40%.

In the case of `COc1ncc(OC)c2c(C(=O)C(=O)N3CC4CCC(c5ccccc5)C4C3)c[nH]c12` (stereo not drawn) [SC10, 1-(4,7-dimethoxy-1H-pyrrolo[2,3-c]pyridin-3-yl)-2-(4-phenylhexahydrocyclopenta[c]pyrrol-2(1H)-yl)ethane-1,2-dione], the IC50 with HIV-1JR-CSF (setting [3]) was 420 ± 110 nM; with HIV-1HxBc2 (setting [4]), 4810 ± 4100 nM.

As to `COc1cnc(-n2cnc(C)n2)c2[nH]cc(C(=O)C(=O)N3CC(CCC(=O)c4ccccc4)C3)c12` [SC15, 1-(4-methoxy-7-(3-methyl-1H-1,2,4-triazol-1-yl)-1H-pyrrolo[2,3-c]pyridin-3-yl)-2-(3-(3-oxo-3-phenylpropyl)azetidin-1-yl)ethane-1,2-dione], the IC50 in the assay on HIV-1JR-CSF (setting [3]) worked out at 2 ± 0.1 nM; in the assay on HIV-1HxBc2 (setting [4]) it was 3 ± 0.5 nM.

With `COc1cnc(Cl)c2[nH]cc(C(=O)C(=O)N3CC4CN(C(=O)c5ccccc5)CC4C3)c12` (stereo not drawn) [SC07, 1-(5-benzoylhexahydropyrrolo[3,4-c]pyrrol-2(1H)-yl)-2-(7-chloro-4-methoxy-1H-pyrrolo[2,3-c]pyridin-3-yl)ethane-1,2-dione], the half-inhibitory concentration (IC50) was 980 ± 60 nM with HIV-1JR-CSF (setting [3]) and 16800 ± 6200 nM with HIV-1HxBc2 (setting [4]). Also, the “specificity to HIV-1 (inhibition of AMLV-pseudotyped HIV-1)” value in assay [1] was “no inhibition of AMLV-pseudotyped HIV-1”.

`O=C(C1=Cc2cc(Br)ccc2OC1)N1CCN(C(=O)c2ccccc2)CC1` [Compound 19]: the concentration for half-maximal inhibition (IC50) (in the assay with HIV-1YU-2; in assay [1]) was greater than 300000 nM throughout.

Consider `CC(C(=O)N1CCCc2ccccc21)N1CCN(C(=O)c2ccccc2)CC1` (stereo not drawn) [Compound 25], for which the IC50 (with HIV-1YU-2; in assay [1]) was greater than 50000 nM each time.

Take `COc1ccc(O)cc1NCC(=O)N1CCN(S(=O)(=O)c2ccc3c(c2)CCC3)CC1` [Compound 42]: the IC50 (in the assay on HIV-1YU-2; in assay [1]) was greater than 50000 nM in each case.

As to `CCc1ccc(C(=O)N2CCN(C(=O)c3cc4cc(C)ccc4nc3C)CC2)cc1` [Compound 22], the IC50 (in the assay on HIV-1YU-2; in assay [1]) was greater than 300000 nM throughout.

As to `O=C(c1ccccn1)N1CCN(S(=O)(=O)c2ccc3ccccc3c2)CC1` [Compound 1], the 50% inhibitory concentration (IC50) (with HIV-1YU-2; in assay [1]) was greater than 300000 nM throughout.

On to `O=C(c1ccccc1)N1CCN(S(=O)(=O)c2ccc3c(c2)CCCC3)CC1` [Compound 13], for which the IC50 with HIV-1YU-2 was 117000 nM; in assay [1] it was 197000 nM.
